Experiments:
[1] = molecular target: NUAK family SNF1-like kinase 1 (Homo sapiens) (UniProt O60285); conditions: Compound concentration 1000.0 nM
[2] = test system: Hepatocyte growth factor receptor (Homo sapiens), P08581 [M1250T]; conditions: Compound concentration 1000.0 nM
[3] = molecular target: Serine/threonine-protein kinase MARK2 (Homo sapiens) (UniProt Q7KZI7); conditions: Compound concentration 1000.0 nM
[4] = molecular target: Mitogen-activated protein kinase kinase kinase 15 (Homo sapiens) (UniProt Q6ZN16); conditions: Compound concentration 1000.0 nM
[5] = molecular target: D(4) dopamine receptor (Homo sapiens) (UniProt P21917); conditions: Compound concentration 10.0 uM
[6] = molecular target: cGMP-dependent protein kinase 1 (Homo sapiens) (UniProt Q13976); conditions: Compound concentration 1000.0 nM
[7] = test system: Tyrosine-protein kinase ABL1 (Homo sapiens), P00519 [H396P]; conditions: Compound concentration 1000.0 nM
[8] = molecular target: Ribosomal protein S6 kinase alpha-6 (Homo sapiens) (UniProt Q9UK32); conditions: Compound concentration 1000.0 nM
[9] = molecular target: Serine/threonine-protein kinase 35 (Homo sapiens) (UniProt Q8TDR2); conditions: Compound concentration 1000.0 nM
[10] = molecular target: Serine/threonine-protein kinase PknB (Mycobacterium tuberculosis) (UniProt P9WI81); conditions: Compound concentration 1000.0 nM
[11] = molecular target: Serine/threonine-protein kinase WNK3 (Homo sapiens) (UniProt Q9BYP7); conditions: Compound concentration 1000.0 nM
[12] = molecular target: Serine/threonine-protein kinase ULK3 (Homo sapiens) (UniProt Q6PHR2); conditions: Compound concentration 1000.0 nM
[13] = molecular target: Beta-adrenergic receptor kinase 1 (Homo sapiens) (UniProt P25098); conditions: Compound concentration 1000.0 nM
[14] = molecular target: Receptor-type tyrosine-protein kinase FLT3 (Homo sapiens) (UniProt P36888); conditions: Compound concentration 1000.0 nM
[15] = molecular target: Serine/threonine-protein kinase PLK2 (Homo sapiens) (UniProt Q9NYY3); conditions: Compound concentration 1000.0 nM
[16] = test system: Epidermal growth factor receptor (Homo sapiens), P00533 [UNDEFINED MUTATION]; conditions: Compound concentration 1000.0 nM
[17] = molecular target: Casein kinase II subunit alpha' (Homo sapiens) (UniProt P19784); conditions: Compound concentration 1000.0 nM
[18] = molecular target: Leucine-rich repeat serine/threonine-protein kinase 2 (Homo sapiens) (UniProt Q5S007); conditions: Compound concentration 1000.0 nM
[19] = molecular target: Mast/stem cell growth factor receptor Kit (Homo sapiens) (UniProt P10721); conditions: Compound concentration 1000.0 nM
[20] = test system: Phosphatidylinositol 4,5-bisphosphate 3-kinase catalytic subunit alpha isoform (Homo sapiens), P42336 [H1047Y]; conditions: Compound concentration 1000.0 nM
[21] = molecular target: Insulin receptor (Homo sapiens) (UniProt P06213); conditions: Compound concentration 1000.0 nM
[22] = molecular target: Ankyrin repeat and protein kinase domain-containing protein 1 (Homo sapiens) (UniProt Q8NFD2); conditions: Compound concentration 1000.0 nM
[23] = molecular target: Mitogen-activated protein kinase 8 (Homo sapiens) (UniProt P45983); conditions: Compound concentration 1000.0 nM
[24] = molecular target: Citron Rho-interacting kinase (Homo sapiens) (UniProt O14578); conditions: Compound concentration 1000.0 nM
[25] = molecular target: Cytoplasmic tyrosine-protein kinase BMX (Homo sapiens) (UniProt P51813); conditions: Compound concentration 1000.0 nM
[26] = molecular target: Dual specificity mitogen-activated protein kinase kinase 7 (Homo sapiens) (UniProt O14733); conditions: Compound concentration 1000.0 nM
[27] = molecular target: Ephrin type-A receptor 1 (Homo sapiens) (UniProt P21709); conditions: Compound concentration 1000.0 nM
[28] = test system: Mast/stem cell growth factor receptor Kit (Homo sapiens), P10721 [V559D,V654A]; conditions: Compound concentration 1000.0 nM
[29] = test system: Phosphatidylinositol 4,5-bisphosphate 3-kinase catalytic subunit alpha isoform (Homo sapiens), P42336 [I800L]; conditions: Compound concentration 1000.0 nM
[30] = molecular target: Serine/threonine-protein kinase SIK2 (Homo sapiens) (UniProt Q9H0K1); conditions: Compound concentration 1000.0 nM
[31] = molecular target: Myosin-IIIa (Homo sapiens) (UniProt Q8NEV4); conditions: Compound concentration 1000.0 nM
[32] = molecular target: NUAK family SNF1-like kinase 2 (Homo sapiens) (UniProt Q9H093); conditions: Compound concentration 1000.0 nM
[33] = molecular target: Mitogen-activated protein kinase kinase kinase 20 (Homo sapiens) (UniProt Q9NYL2); conditions: Compound concentration 1000.0 nM
[34] = molecular target: Activin receptor type-1 (Homo sapiens) (UniProt Q04771); conditions: Compound concentration 1000.0 nM
[35] = molecular target: Ribosomal protein S6 kinase alpha-4 (Homo sapiens) (UniProt O75676); conditions: Compound concentration 1000.0 nM
[36] = molecular target: Interleukin-1 receptor-associated kinase 3 (Homo sapiens) (UniProt Q9Y616); conditions: Compound concentration 1000.0 nM
[37] = molecular target: Dual specificity mitogen-activated protein kinase kinase 5 (Homo sapiens) (UniProt Q13163); conditions: Compound concentration 1000.0 nM
[38] = molecular target: Alpha-2A adrenergic receptor (Homo sapiens) (UniProt P08913); conditions: Compound concentration 10.0 uM
[39] = molecular target: Mitogen-activated protein kinase kinase kinase 13 (Homo sapiens) (UniProt O43283); conditions: Compound concentration 1000.0 nM
[40] = molecular target: Tyrosine-protein kinase Srms (Homo sapiens) (UniProt Q9H3Y6); conditions: Compound concentration 1000.0 nM
[41] = molecular target: Mitogen-activated protein kinase kinase kinase kinase 5 (Homo sapiens) (UniProt Q9Y4K4); conditions: Compound concentration 1000.0 nM
[42] = molecular target: 3-phosphoinositide-dependent protein kinase 1 (Homo sapiens) (UniProt O15530); conditions: Compound concentration 1000.0 nM
[43] = molecular target: Tyrosine-protein kinase Yes (Homo sapiens) (UniProt P07947); conditions: Compound concentration 1000.0 nM
[44] = molecular target: Serine/threonine-protein kinase DCLK1 (Homo sapiens) (UniProt O15075); conditions: Compound concentration 1000.0 nM
[45] = molecular target: Casein kinase I isoform gamma-2 (Homo sapiens) (UniProt P78368); conditions: Compound concentration 1000.0 nM

Chain of Tyrosine-protein kinase Srms (Homo sapiens) (Q9H3Y6 whole entry): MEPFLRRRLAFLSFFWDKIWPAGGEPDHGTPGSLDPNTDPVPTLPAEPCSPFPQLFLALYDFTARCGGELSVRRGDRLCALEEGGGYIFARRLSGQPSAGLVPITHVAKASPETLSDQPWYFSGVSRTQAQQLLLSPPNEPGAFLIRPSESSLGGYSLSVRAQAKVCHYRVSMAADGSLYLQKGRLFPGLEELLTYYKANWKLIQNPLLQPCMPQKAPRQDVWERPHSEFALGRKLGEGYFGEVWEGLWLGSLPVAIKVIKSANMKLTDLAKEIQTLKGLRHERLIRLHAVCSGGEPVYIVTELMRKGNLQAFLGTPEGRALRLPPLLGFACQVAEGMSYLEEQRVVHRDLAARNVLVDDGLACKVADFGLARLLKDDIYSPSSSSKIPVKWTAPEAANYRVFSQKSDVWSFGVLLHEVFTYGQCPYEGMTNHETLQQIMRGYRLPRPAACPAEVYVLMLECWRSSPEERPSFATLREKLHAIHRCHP
Chain of Mitogen-activated protein kinase kinase kinase kinase 5 (Homo sapiens) (Q9Y4K4 whole entry, looked up): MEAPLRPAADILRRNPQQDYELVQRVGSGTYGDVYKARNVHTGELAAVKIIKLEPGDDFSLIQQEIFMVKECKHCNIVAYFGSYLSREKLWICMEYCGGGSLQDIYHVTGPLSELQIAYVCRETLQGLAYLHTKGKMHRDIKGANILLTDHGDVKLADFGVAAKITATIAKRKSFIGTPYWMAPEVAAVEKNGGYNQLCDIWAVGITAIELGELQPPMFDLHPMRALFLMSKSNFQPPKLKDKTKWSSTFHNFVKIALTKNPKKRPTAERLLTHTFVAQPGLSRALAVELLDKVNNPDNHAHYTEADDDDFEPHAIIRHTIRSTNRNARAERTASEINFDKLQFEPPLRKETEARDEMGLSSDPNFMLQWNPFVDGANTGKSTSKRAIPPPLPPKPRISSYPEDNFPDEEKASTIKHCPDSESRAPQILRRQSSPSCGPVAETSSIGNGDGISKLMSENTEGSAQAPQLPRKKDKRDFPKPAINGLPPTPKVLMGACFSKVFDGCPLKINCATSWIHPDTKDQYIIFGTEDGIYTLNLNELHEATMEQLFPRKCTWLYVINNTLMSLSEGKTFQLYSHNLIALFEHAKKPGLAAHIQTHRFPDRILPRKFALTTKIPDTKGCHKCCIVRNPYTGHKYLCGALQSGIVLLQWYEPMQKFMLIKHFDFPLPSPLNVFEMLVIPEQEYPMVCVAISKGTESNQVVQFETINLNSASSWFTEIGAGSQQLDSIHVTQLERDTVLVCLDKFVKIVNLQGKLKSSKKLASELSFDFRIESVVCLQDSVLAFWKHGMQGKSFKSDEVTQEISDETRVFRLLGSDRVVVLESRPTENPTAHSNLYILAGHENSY
Chain of cGMP-dependent protein kinase 1 (Homo sapiens) (Q13976 whole entry): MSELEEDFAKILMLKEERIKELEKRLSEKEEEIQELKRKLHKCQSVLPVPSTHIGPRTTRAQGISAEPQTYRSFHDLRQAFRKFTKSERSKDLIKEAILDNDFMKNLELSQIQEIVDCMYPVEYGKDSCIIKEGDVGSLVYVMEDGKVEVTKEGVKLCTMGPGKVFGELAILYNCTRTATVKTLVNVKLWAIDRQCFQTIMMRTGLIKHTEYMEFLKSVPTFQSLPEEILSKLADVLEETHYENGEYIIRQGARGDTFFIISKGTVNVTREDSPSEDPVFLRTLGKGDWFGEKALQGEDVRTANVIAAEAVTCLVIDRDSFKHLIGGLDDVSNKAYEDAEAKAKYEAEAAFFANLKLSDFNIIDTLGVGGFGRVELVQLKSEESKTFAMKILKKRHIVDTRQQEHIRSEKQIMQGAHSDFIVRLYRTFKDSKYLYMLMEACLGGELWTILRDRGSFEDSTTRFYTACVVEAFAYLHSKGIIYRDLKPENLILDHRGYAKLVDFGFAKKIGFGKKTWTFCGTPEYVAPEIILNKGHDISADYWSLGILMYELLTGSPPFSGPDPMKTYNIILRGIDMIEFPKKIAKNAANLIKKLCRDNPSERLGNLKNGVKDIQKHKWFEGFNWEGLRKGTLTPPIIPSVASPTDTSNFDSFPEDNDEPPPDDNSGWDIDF
Chain of Mitogen-activated protein kinase 8 (Homo sapiens) (P45983 whole entry): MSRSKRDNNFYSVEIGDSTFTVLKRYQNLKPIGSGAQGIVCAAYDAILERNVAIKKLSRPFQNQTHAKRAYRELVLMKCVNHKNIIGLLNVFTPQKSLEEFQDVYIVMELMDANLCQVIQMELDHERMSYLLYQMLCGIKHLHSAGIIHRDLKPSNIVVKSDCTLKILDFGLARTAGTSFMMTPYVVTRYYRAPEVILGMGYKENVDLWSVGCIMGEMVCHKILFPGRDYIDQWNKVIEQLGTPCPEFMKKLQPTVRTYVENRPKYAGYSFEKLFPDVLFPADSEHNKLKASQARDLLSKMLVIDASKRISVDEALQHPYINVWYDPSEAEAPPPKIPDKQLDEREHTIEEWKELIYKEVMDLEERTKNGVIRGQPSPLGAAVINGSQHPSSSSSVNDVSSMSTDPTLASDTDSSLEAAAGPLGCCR
Chain of Insulin receptor (Homo sapiens) (P06213 28-758 limits assumed): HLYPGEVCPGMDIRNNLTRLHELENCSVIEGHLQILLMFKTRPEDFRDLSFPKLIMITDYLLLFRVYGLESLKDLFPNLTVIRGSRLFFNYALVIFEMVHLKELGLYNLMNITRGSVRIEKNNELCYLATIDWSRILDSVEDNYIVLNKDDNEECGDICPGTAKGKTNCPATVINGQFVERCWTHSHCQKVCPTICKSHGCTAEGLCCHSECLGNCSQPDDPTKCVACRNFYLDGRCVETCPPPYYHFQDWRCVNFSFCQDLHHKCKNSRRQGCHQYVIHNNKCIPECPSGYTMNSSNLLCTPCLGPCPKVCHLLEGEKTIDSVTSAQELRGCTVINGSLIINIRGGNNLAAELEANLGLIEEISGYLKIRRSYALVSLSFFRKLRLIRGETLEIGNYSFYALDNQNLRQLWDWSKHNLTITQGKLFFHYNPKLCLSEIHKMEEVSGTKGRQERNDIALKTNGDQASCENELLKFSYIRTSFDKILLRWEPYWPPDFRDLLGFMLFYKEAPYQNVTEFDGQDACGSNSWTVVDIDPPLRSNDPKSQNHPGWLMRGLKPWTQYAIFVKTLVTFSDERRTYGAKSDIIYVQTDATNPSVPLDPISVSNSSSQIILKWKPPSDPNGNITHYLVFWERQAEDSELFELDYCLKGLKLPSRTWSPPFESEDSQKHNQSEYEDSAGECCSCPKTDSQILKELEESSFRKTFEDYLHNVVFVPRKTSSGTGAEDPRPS
Chain of Insulin receptor (Homo sapiens) (P06213 763-1382 limits assumed): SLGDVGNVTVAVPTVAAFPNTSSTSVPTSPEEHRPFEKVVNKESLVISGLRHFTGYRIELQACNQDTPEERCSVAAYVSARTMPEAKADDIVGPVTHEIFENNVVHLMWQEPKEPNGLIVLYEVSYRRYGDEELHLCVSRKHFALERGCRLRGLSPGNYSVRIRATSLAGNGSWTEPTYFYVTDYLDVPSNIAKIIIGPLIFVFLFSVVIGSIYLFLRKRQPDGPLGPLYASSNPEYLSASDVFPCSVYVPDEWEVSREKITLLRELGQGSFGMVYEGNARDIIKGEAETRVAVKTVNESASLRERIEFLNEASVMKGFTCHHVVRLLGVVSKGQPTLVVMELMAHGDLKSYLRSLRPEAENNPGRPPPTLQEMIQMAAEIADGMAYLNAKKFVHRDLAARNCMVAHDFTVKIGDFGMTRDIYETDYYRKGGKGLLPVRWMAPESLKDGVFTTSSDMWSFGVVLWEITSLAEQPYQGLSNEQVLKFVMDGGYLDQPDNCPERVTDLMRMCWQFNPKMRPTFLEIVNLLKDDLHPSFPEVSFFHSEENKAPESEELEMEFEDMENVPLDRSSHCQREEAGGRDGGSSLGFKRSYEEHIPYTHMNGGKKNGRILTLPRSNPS
Chain of Mast/stem cell growth factor receptor Kit (Homo sapiens), P10721 [V559D,V654A] (P10721 whole entry V559D/V654A, canonical isoform): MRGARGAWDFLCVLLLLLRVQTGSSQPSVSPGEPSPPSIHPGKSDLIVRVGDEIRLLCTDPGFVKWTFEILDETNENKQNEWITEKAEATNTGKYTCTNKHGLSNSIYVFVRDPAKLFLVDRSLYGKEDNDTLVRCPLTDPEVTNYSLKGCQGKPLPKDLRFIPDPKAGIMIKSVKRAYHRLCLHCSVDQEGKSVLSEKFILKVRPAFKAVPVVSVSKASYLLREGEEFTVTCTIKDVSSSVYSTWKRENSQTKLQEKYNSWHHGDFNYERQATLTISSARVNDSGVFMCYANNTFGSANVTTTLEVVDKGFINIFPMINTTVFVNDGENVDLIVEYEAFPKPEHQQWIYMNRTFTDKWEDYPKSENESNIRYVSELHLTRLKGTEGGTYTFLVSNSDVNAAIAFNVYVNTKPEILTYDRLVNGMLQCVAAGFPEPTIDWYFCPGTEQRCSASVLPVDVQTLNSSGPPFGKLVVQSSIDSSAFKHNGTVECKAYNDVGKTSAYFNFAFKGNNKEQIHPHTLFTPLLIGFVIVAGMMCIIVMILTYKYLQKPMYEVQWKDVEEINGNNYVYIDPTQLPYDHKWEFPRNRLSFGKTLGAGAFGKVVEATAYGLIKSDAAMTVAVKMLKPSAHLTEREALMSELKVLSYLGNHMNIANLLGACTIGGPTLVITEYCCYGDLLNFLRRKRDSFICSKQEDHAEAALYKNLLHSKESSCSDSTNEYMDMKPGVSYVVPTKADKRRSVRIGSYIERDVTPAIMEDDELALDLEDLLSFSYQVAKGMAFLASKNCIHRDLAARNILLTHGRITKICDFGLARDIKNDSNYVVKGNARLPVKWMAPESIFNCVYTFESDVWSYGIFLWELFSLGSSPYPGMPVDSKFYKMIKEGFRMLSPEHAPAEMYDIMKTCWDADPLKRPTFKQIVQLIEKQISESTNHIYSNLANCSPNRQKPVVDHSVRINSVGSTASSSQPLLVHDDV
Chain of Mast/stem cell growth factor receptor Kit (Homo sapiens) (P10721 whole entry, canonical isoform): as the sequence (P10721 whole entry V559D/V654A, canonical isoform) above, with D559V, A654V counted along it

Cc1nc(N2CC[C@@H](O)C2)ncc1-c1cc(C(F)(F)F)cc2[nH]ncc12 [TP-004]
residual activity [1]: 83%
residual activity [2]: 92%
residual activity [3]: 100%
residual activity [4]: 100%
inhibition [5]: 7.69%
residual activity [6]: 77%
residual activity [7]: 61%
residual activity [8]: 100%
residual activity [9]: 100%
residual activity [10]: 89%
residual activity [11]: 67%
residual activity [12]: 78%
residual activity [13]: 42%
residual activity [14]: 87%
residual activity [15]: 76%
residual activity [16]: 100%
residual activity [17]: 91%
residual activity [18]: 58%
residual activity [19]: 67%
residual activity [20]: 99%
residual activity [21]: 100%
residual activity [22]: 85%
residual activity [23]: 100%
residual activity [24]: 82%
residual activity [25]: 100%
residual activity [26]: 64%
residual activity [27]: 85%
residual activity [28]: 94%
residual activity [29]: 66%
residual activity [30]: 100%
residual activity [31]: 100%
residual activity [32]: 67%
residual activity [33]: 100%
residual activity [34]: 80%
residual activity [35]: 68%
residual activity [36]: 85%
residual activity [37]: 68%
inhibition [38]: 10.6%
residual activity [39]: 56%
residual activity [40]: 81%
residual activity [41]: 75%
residual activity [42]: 100%
residual activity [43]: 90%
residual activity [44]: 100%
residual activity [45]: 100%

From ChEMBL document CHEMBL4507303, “Data for DCP probe TP-004” (2021)
